Tests used:
Mu-type opioid receptor = Mu-type opioid receptor (Homo sapiens, UniProt P35372)
[1] = biological target: Gamma-aminobutyric acid receptor subunit alpha-1 (Rattus norvegicus, UniProt P62813)
[2] = biological target: Alpha-2C adrenergic receptor (Homo sapiens, UniProt P18825)
D(1B) dopamine receptor = D(1B) dopamine receptor (Homo sapiens, UniProt P21918)
[3] = biological target: Muscarinic acetylcholine receptor M3 (Homo sapiens, UniProt P20309)
D(4) dopamine receptor = D(4) dopamine receptor (Homo sapiens, UniProt P21917)
[4] = biological target: 5-hydroxytryptamine receptor 1D (Homo sapiens, UniProt P28221)
[5] = biological target: Sigma non-opioid intracellular receptor 1 (Rattus norvegicus, UniProt Q9R0C9)
[6] = biological target: Muscarinic acetylcholine receptor M5 (Homo sapiens, UniProt P08912)
[7] = biological target: Alpha-2A adrenergic receptor (Homo sapiens, UniProt P08913)
[8] = biological target: 5-hydroxytryptamine receptor 6 (Homo sapiens, UniProt P50406)
[9] = biological target: 5-hydroxytryptamine receptor 5A (Homo sapiens, UniProt P47898)
[10] = biological target: 5-hydroxytryptamine receptor 3A (Homo sapiens, UniProt P46098)
D(1A) dopamine receptor = D(1A) dopamine receptor (Homo sapiens, UniProt P21728)
Chain of D(1A) dopamine receptor (P21728 whole entry): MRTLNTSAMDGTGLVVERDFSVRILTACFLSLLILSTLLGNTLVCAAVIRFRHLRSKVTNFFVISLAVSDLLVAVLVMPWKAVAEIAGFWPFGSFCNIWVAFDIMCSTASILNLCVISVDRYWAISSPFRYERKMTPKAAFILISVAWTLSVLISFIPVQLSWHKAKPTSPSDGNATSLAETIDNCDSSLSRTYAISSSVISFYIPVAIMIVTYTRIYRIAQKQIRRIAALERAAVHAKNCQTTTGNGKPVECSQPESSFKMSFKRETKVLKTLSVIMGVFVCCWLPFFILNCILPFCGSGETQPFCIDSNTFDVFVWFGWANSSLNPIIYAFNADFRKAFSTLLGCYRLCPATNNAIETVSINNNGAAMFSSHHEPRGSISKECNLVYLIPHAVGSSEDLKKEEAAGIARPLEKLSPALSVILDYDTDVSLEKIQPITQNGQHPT

[11] = biological target: Prostaglandin E2 receptor EP3 subtype (Homo sapiens, UniProt P43115)
[12] = biological target: Alpha-1A adrenergic receptor (Homo sapiens, UniProt P35348)
Chain of Alpha-1A adrenergic receptor (P35348 whole entry): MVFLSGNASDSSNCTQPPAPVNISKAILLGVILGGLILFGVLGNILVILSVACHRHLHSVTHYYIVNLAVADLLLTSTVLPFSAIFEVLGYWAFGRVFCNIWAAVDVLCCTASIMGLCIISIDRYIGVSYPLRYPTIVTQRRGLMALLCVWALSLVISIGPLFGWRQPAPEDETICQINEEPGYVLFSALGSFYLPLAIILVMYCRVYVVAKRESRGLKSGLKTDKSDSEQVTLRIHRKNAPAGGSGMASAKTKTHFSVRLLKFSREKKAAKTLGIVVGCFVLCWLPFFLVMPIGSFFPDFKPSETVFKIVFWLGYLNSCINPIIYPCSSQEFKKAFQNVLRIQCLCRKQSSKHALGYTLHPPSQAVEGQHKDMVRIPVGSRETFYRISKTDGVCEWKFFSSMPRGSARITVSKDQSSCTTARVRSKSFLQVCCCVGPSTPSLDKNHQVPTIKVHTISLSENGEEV

[13] = biological target: 5-hydroxytryptamine receptor 1B (Homo sapiens, UniProt P28222)
Histamine H2 receptor = Histamine H2 receptor (Homo sapiens, UniProt P25021)
Chain of Histamine H2 receptor (P25021 whole entry): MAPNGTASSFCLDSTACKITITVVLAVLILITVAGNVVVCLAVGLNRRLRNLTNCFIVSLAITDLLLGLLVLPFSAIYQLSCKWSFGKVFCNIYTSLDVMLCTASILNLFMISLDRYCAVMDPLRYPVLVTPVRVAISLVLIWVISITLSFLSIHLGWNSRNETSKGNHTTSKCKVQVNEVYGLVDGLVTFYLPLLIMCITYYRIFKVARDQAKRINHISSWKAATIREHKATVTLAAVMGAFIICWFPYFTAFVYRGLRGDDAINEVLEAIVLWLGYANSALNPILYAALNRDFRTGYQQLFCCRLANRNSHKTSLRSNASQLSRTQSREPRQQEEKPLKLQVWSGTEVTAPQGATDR

[14] = biological target: Alpha-1B adrenergic receptor (Homo sapiens, UniProt P35368)
[15] = biological target: Muscarinic acetylcholine receptor M2 (Homo sapiens, UniProt P08172)
[16] = biological target: Muscarinic acetylcholine receptor M4 (Homo sapiens, UniProt P08173)
[17] = biological target: Beta-2 adrenergic receptor (Homo sapiens, UniProt P07550)
Chain of Beta-2 adrenergic receptor (P07550 whole entry): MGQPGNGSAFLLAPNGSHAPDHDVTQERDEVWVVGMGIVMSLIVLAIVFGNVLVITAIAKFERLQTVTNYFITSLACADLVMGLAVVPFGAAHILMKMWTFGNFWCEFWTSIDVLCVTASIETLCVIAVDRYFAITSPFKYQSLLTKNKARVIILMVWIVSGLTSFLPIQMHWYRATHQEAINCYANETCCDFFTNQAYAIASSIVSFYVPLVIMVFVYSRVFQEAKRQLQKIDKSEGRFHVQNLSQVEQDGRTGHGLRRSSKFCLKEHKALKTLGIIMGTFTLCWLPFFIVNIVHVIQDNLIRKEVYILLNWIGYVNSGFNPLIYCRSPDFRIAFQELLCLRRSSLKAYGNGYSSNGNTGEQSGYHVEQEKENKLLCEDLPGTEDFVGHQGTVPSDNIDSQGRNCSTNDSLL

[18] = biological target: Kappa-type opioid receptor (Homo sapiens, UniProt P41145)
[19] = biological target: 5-hydroxytryptamine receptor 2C (Homo sapiens, UniProt P28335)
[20] = biological target: Beta-3 adrenergic receptor (Homo sapiens, UniProt P13945)
Histamine H4 receptor = Histamine H4 receptor (Homo sapiens, UniProt Q9H3N8)
[21] = biological target: Sodium-dependent noradrenaline transporter (Homo sapiens, UniProt P23975)
Chain of Sodium-dependent noradrenaline transporter (P23975 whole entry): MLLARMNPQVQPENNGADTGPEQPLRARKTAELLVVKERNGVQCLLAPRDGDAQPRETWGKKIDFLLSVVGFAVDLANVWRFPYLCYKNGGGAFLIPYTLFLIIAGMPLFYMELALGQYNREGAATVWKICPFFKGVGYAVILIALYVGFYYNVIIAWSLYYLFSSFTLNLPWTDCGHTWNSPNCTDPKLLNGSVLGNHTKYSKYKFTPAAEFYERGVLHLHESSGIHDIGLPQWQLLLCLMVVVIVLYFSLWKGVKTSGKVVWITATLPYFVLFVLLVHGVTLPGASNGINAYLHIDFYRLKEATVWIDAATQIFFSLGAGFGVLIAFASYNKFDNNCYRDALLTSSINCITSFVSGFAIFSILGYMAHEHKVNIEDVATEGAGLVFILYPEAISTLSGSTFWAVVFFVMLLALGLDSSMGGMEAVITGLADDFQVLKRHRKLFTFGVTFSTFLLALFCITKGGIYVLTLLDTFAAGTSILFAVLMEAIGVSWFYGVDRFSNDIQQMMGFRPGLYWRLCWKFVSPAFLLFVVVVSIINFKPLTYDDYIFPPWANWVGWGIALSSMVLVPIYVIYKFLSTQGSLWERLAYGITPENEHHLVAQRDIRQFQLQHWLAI

[22] = biological target: Alpha-1D adrenergic receptor (Homo sapiens, UniProt P25100)
Chain of Alpha-1D adrenergic receptor (P25100 whole entry): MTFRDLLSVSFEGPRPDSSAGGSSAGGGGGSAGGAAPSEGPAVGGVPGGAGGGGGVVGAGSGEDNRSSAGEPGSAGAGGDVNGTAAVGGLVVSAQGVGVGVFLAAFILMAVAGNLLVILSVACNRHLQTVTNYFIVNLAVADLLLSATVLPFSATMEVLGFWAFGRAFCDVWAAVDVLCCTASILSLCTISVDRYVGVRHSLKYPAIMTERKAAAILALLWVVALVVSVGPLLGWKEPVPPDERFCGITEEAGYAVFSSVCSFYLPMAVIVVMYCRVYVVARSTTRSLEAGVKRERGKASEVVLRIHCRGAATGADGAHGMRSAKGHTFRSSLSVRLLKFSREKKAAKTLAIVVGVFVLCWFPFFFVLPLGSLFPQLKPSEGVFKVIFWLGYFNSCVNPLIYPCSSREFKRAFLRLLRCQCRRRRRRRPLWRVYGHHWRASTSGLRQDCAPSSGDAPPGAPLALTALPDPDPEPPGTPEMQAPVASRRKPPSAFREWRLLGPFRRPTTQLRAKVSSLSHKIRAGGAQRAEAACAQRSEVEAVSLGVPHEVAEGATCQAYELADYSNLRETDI

Histamine H1 receptor = Histamine H1 receptor (Homo sapiens, UniProt P35367)
[23] = biological target: 5-hydroxytryptamine receptor 1E (Homo sapiens, UniProt P28566)
[24] = biological target: Beta-1 adrenergic receptor (Homo sapiens, UniProt P08588)
Chain of Beta-1 adrenergic receptor (P08588 whole entry): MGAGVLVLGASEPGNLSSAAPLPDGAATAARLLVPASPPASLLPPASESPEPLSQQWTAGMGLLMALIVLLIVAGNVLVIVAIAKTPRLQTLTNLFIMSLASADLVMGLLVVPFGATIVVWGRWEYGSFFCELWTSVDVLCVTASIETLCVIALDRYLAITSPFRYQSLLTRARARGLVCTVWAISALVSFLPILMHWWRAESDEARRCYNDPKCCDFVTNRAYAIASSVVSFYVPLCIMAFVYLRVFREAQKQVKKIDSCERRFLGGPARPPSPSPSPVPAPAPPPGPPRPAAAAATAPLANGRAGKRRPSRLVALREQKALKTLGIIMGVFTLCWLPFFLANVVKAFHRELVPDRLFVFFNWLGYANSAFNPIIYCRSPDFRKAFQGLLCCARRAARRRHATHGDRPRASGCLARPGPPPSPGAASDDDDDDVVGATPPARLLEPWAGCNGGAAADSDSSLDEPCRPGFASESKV

[25] = biological target: Muscarinic acetylcholine receptor M1 (Homo sapiens, UniProt P11229)
[26] = biological target: 5-hydroxytryptamine receptor 1A (Homo sapiens, UniProt P08908)
[27] = biological target: Prostaglandin E2 receptor EP4 subtype (Homo sapiens, UniProt P35408)
Chain of Prostaglandin E2 receptor EP4 subtype (P35408 whole entry): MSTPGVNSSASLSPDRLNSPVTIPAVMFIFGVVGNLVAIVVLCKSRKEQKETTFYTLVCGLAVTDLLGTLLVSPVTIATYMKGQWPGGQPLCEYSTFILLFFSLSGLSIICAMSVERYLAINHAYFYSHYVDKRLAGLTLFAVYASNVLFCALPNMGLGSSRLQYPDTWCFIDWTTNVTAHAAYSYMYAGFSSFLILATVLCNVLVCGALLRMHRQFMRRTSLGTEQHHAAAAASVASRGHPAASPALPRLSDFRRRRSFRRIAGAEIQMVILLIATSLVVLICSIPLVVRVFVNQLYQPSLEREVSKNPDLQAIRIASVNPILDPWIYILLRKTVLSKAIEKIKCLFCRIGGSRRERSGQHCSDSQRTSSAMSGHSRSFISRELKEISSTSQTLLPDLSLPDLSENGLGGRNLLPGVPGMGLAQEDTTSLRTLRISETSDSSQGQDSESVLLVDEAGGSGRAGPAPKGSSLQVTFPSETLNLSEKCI

[28] = biological target: Delta-type opioid receptor (Homo sapiens, UniProt P41143)

Chain of Alpha-2C adrenergic receptor (P18825 whole entry): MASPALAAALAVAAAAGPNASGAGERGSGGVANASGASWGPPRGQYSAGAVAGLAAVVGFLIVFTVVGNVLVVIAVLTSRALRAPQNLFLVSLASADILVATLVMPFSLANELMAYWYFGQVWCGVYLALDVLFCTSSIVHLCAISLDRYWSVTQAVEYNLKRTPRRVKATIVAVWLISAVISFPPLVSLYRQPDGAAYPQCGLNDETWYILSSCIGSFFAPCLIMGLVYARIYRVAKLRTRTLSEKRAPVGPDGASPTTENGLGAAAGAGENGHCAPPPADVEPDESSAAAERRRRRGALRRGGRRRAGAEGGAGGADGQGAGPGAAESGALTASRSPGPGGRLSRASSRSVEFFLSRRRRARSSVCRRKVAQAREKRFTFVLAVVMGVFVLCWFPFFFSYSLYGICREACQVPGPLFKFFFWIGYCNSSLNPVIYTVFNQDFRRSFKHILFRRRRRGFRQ
Chain of Muscarinic acetylcholine receptor M3 (P20309 whole entry): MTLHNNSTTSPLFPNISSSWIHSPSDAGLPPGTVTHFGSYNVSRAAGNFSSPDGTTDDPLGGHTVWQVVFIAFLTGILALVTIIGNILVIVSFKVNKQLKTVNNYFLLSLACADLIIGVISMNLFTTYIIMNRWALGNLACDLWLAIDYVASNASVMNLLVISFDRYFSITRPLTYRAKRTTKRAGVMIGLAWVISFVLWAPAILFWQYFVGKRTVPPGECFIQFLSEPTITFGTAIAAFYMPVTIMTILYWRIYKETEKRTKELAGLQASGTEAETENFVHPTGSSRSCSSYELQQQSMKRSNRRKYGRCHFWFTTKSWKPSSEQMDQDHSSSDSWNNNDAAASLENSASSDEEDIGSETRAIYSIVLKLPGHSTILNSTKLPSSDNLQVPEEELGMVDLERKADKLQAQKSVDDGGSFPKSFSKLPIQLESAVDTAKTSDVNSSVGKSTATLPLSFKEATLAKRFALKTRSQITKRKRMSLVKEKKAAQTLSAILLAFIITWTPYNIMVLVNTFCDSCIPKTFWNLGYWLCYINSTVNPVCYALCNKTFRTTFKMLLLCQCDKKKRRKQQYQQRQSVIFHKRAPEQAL

CCN1CCCC1CNC(=O)c1cc(S(=O)(=O)CC)c(N)cc1OC (stereo not given) [NSC_2159]
Ki (Mu-type opioid receptor): > 10 µM | Ki [1]: > 10 µM | Ki [2]: 1.54 µM | Ki (D(1B) dopamine receptor): > 10 µM | Ki [3]: > 10 µM | Ki (D(4) dopamine receptor): 2.37 µM | Ki [4]: 1.34 µM | Ki [5]: > 10 µM | Ki [6]: > 10 µM | Ki [7]: 1.11 µM | Ki [8]: 4.15 µM | Ki [9]: > 10 µM | Ki [10]: > 10 µM | Ki (D(1A) dopamine receptor): > 10 µM | Ki [11]: > 10 µM | Ki [12]: > 10 µM | Ki [13]: 1.74 µM | Ki (Histamine H2 receptor): > 10 µM | Ki [14]: > 10 µM | Ki [15]: > 10 µM | Ki [16]: > 10 µM | Ki [17]: > 10 µM | Ki [18]: > 10 µM | Ki [19]: > 10 µM | Ki [20]: > 10 µM | Ki (Histamine H4 receptor): > 10 µM | Ki [21]: > 10 µM | Ki [22]: > 10 µM | Ki (Histamine H1 receptor): > 10 µM | Ki [23]: > 10 µM | Ki [24]: > 10 µM | Ki [25]: > 10 µM | Ki [26]: > 10 µM | Ki [27]: > 10 µM | Ki [28]: > 10 µM

Source: BindingDB's records for doi:10.1007/s00213-009-1521-8 (Case Western Reserve University, 2009)
